Like-named read-outs stand apart in the source and are kept apart here. Marks after values point to notes of the source that are not given here. Some results are limits rather than exact numbers.

The record followed here is article PMC9781803, “Phenotypic and Target-Directed Screening Yields New Acaricidal Alternatives for the Control of Ticks” (Molecules, 2022).

The target in data set [1] is T1, Homo sapiens triosephosphate isomerase (HsTIM) (Homo sapiens, UniProt P60174).
T1 construct: made in house; host or cells: Escherichia coli
T1 sequence (P60174 whole entry): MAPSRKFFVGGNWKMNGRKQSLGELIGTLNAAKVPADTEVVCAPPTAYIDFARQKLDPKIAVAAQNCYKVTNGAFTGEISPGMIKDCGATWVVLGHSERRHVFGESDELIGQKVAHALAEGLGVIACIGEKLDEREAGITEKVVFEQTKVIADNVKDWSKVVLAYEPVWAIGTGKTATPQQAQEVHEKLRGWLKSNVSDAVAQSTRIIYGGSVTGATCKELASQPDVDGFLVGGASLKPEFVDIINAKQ
The data set is described as follows: Enzymatic activity of TIM, coupled enzyme assay. The class given is biochemical. The procedure: (§1) R. microplus triosephosphate isomerase (RmTIM) and Homo sapiens triosephosphate isomerase (HsTIM) were expressed in Escherichia coli, and purified as previously described in the literature. Protein concentration was determined by absorbance measurements at 280 nm for RmTIM (ε = 33440 M^−1cm^−1) and HsTIM (ε = 33460 M^−1cm^−1). Enzymatic activity was determined following the reaction of the conversion of glyceraldehyde-3-phosphate to dihydroxyacetone phosphate in a coupled enzyme assay using α-glycerol-phosphate dehydrogenase. The decrease in absorbance at 340 nm was recorded in a multiplate reader Varioskan™ Flash Multimode Reader (Thermo Scientific^TM, Waltham, MA, USA) at 25 °C. The reaction mixture ([…], pH 7.4) contained 100 mM triethanolamine, 10 mM EDTA, 0.2 mM NADH, 1 mM glyceraldehyde-3-phosphate, and 0.9 units of α-glycerol-phosphate dehydrogenase. The reaction was initiated by the addition of 5 ng/mL of the TIM of interest. For the inhibition studies (incubation mixture), TIM was incubated at a concentration of 5 mg/mL in a buffer of pH 7.4 containing 100 mM triethanolamine, 10 mM EDTA, and 10% DMSO at 25 °C for 1 h. The mixture also contained the compounds, dissolved in DMSO, at final concentrations of 10 and 100 μM. After 1 h, 10 μL of the incubation mixture was added to the reaction mixture, to a final volume of 100 μL in a 96-well plate. None of the molecules tested here affected the activity of α-glycerol-phosphate dehydrogenase (checked in situ on the reaction mixture inhibited, with the addition of fresh α-glycerol-phosphate dehydrogenase and running the measurement again). The IC50 value was taken as the concentration of drug needed to reduce the enzymatic activity by 50%, and was analyzed using OriginLab 8.5 Corporation, Northampton, MA, USA, sigmoidal regression (% of enzymatic activity vs. the logarithm of the compound concentration). The tests were performed in triplicate in two independent experiments.

Another data set relates to R. microplus. Description: Acaricidal activity on R. microplus (LIT and AIT, overall statement). As to conditions: LIT 1 mM and AIT 1.5 mM. The class given is in vivo. The procedure: After immersion, the fully engorged females were lightly dried with absorbent paper. […] The tubes carrying the eggs were closed with hydrophilic cotton, and were returned to the incubator chamber under the same conditions until the eggs hatched. The reproductive efficacy, as well as % control of each compound on R. microplus, was calculated according to published reports. The results were verified in two independent experiments. This assay was performed based on the method of Castro-Janer et al., 2011. […] The tubes were incubated in the same conditions as described above. The larvae were ready for testing after 14 to 21 days from egg-hatching. For the test, the compounds were diluted in DMSO, and were later resuspended in distilled water, always using 15% DMSO of the final solution volume. […] For the immersion procedure, tubes containing the larvae were placed vertically, without the cotton plug, and the larvae were taken with a brush from the top of the tube, ensuring they were viable. A cluster with a diameter of 2 mm of larvae was collected with a brush, and was later immersed in each solution, as well as in both control solutions, for 10 min. After this time, the solutions were drained, and the larvae were placed in 8.5 cm × 7.5 cm Whatman No. 1 filter papers. The filters were folded in the middle of the 8.5 cm side, and closed with 3 bulldog clips, forming packets. These packets were incubated for 24 h, under the same conditions as described previously, and then the percent of mortality was determined, considering it as the % of the control.

In data set [2] the test system is J774.1 murine macrophages. The data set is described as follows: Cytotoxicity assay on murine macrophages (MTT). The class given is cell-based. The conditions noted are these: for EC50: read-out: EC50 (µM) for Mammalian Cells. As for the experimental part: J774.1 murine macrophages (ATCC, Rockville, MD, USA) were grown in a DMEM culture medium containing 4 mM L-glutamine, and supplemented with 10% FCS. The cells were seeded into a 96-well plate (5 × 10^4 cells in 200 µL culture medium) and incubated at 37 °C in a 5% CO2 atmosphere for 48 h, to allow cell adhesion before drug testing. Afterward, the cells were exposed for 48 h to the compounds (25–400 μM) or the vehicle (0.4% DMSO), and additional controls (cells in medium) were used in each test. Cell viability was then assessed by measuring the mitochondria-dependent reduction of MTT to formazan: for this, MTT in sterile PBS (0.2% glucose), pH 7.4, was added to the macrophages, to a final concentration of 0.1 mg/mL, and the cells were then incubated at 37 °C for 3 h. After removing the medium, the formazan crystals were dissolved in 180 μL of DMSO and 20 μL of MTT buffer (0.1 M glycine, 0.1 M NaCl, 0.5 mM EDTA, pH 10.5), and the absorbance was measured at 560 nm. The IC50 was defined as the drug concentration at which 50% of the cells were viable, relative to the control (no drug added), and was determined by analysis using OriginLab 8.5 Corporation, Northampton, MA, USA, sigmoidal regression (% of viable cells compared to the logarithm of the compound concentration). The tests were performed in triplicate in two independent experiments.

For data set [3], the target named is R. microplus triosephosphate isomerase (RmTIM) (Rhipicephalus microplus, UniProt A8B3A8). Description: biochemical. The conditions noted are these: for IC50: RmTIM, read-out: IC50. As for the experimental part:
as §1

In data set [4] the test system is R. microplus (Mozo strain) larvae. Description: Larval Immersion Test (LIT). The class given is in vivo. As for the experimental part: This assay was performed based on the method of Castro-Janer et al., 2011. Fully engorged females of R. microplus (Mozo strain) were incubated in Petri dishes at 27 °C and 85–90% relative humidity for 14 days. […] The tubes were incubated in the same conditions as described above. The larvae were ready for testing after 14 to 21 days from egg-hatching. For the test, the compounds were diluted in DMSO, and were later resuspended in distilled water, always using 15% DMSO of the final solution volume. The concentrations for the different compounds for the final immersion solution are 1 mg/mL for the extracts, and 1 mM for the compounds. […] For the immersion procedure, tubes containing the larvae were placed vertically, without the cotton plug, and the larvae were taken with a brush from the top of the tube, ensuring they were viable. A cluster with a diameter of 2 mm of larvae was collected with a brush, and was later immersed in each solution, as well as in both control solutions, for 10 min. After this time, the solutions were drained, and the larvae were placed in 8.5 cm × 7.5 cm Whatman No. 1 filter papers. The filters were folded in the middle of the 8.5 cm side, and closed with 3 bulldog clips, forming packets. These packets were incubated for 24 h, under the same conditions as described previously, and then the percent of mortality was determined, considering it as the % of the control.

The test system of data set [5] is embryonic cell line BME26. Description: Phenotypic screening on BME26 cell cultures (MTT viability). The class given is cell-based, R. microplus. As to conditions: for inhibition at 100 µM: synthetic compounds at 100 μM, BME26, 24 h, read-out: % of Growth Inhibition. The procedure:
The embryonic cell line BME26 from R. microplus (Centro de Biotecnologia, Universidade Federal do Rio Grande do Sul, Porto Alegre, RS, Brazil) was grown as adherent monolayers in a complete medium, as described previously, which consisted of L-15B300 medium supplemented with 5% heat-inactivated Fetal Bovine Serum (FBS) (Gibco Co., Grand Island, NY), 10% Tryptose Phosphate Broth (TPB) (BD), penicillin (100 U/mL), streptomycin ([…], Gibco Co., Grand Island, NY, USA), and 0.1% bovine lipoprotein concentrate (ICN), (pH 7.2). The suspension of embryonic BME26 cells from R. microplus was seeded into 24-well plates (5 × 10^5 cells/well) to a final volume of 500 μL in a complete medium, and allowed to attach. After 24 h incubation at 34 °C, the extracts (100 µg/mL final concentration) and the compounds were added to the final concentrations indicated (1–100 µM), and 0.05% dimethylsulfoxide (DMSO) was used in the negative control wells. After 24 h of treatment, 50 μL of 3-(4,5-dimethylthiazol-2-yl)-2,5-diphenyltetrazolium bromide (MTT) prepared in serum-free medium (5 mg/mL) was added to each well. The media were discarded after 2 additional hours of incubation, and 1 mL of acid-isopropyl alcohol (0.15% HCl in isopropyl alcohol) was added to dissolve the formazan crystals. The mixture was transferred to 1.5 mL tubes, centrifuged at 6000× g for 15 min, and the clear supernatant was collected in new tubes for absorbance measurement at 570 nm using quartz cuvettes in a UVmini-1240 UV–vis spectrophotometer (Shimadzu, Japan). Absorbance values of the control treatment were used for normalization (100% viability). The activity was determined by analysis using OriginLab8.5® sigmoidal regression (% of viable cells compared to the logarithm of the compound concentration). The half-maximal inhibitory concentration (IC50), defined as the drug concentration at which 50% of the cells were viable relative to the control (no drug added), was used as a measurement of activity. These experiments were performed in triplicate for each compound.

Where [6] appears, read: Mus musculus, J774.1, cytotoxicity.
The mark [7] stands for this setting: 1 h incubation, read-out: % Inhibition of Enzymatic Activity of RmTIM.

Sequence of R. microplus triosephosphate isomerase (RmTIM) (A8B3A8 entry or part of it): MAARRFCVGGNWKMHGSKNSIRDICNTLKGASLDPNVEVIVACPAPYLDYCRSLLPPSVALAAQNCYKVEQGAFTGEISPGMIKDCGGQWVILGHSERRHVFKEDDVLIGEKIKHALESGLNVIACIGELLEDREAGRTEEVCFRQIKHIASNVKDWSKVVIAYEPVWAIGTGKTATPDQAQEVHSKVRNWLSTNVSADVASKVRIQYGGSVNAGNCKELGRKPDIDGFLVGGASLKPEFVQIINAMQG

For the compound `COc1cc(/C=C/C(=O)CC(=O)/C=C/[c-]2cccc2)ccc1O.[Fe+2].c1cc[cH-]c1` [Mar105, [(1E,6E)-7-(4-hydroxy-3-methoxyphenyl)-3,5-dioxo-1,6-heptadien-1-yl]ferrocene], the “% Inhibition of Enzymatic Activity of HsTIM at 10 µM” value in data set [1] worked out at 0%. Besides, the “acaricidal activity (in words)” value with R. microplus is listed as “did not show reproducible acaricidal activity”. In addition, in data set [2] (cytotoxicity), the EC50 is more than 25 µM. Besides, the IC50 in data set [3] came out at 10 ± 1 µM.
Turning to Ivermectin [reference compound], in data set [4] (commercial ivermectin control at 0.082 mM), the “% of Mortality LIT” value amounted to 100%.
In the case of `O=C1/C(=C/c2ccccc2)CCC/C1=C\c1ccccc1` [compound 799], the inhibition at 10 µM in data set [1] is 0%; in data set [3] (setting [7]) it was 88%. The “acaricidal activity (in words)” value in the data set on R. microplus is listed as “did not show reproducible acaricidal activity”. For the same compound, the concentration giving a half-maximal response (EC50) in data set [2] (setting [6]) was more than 50 µM. In addition, in data set [3], the IC50 is less than 10 µM.
Take `Clc1ccc(-c2csc(/N=C/C=C/c3ccco3)n2)cc1` [compound 910]: in data set [1], the inhibition at 10 µM was 0%. In addition, the “acaricidal activity (in words)” value in the data set on R. microplus was “did not show reproducible acaricidal activity”. For the same compound, the EC50 in data set [2] (setting [6]) was more than 50 µM. Moreover, the IC50 in data set [3] was determined as 23 ± 2 µM. The inhibition at 100 µM in data set [3] (at 100 µM (**), 1 h incubation, read-out: % Inhibition of Enzymatic Activity of RmTIM) was determined as 60%.
Regarding `Cc1c(/C=C/C(=O)c2ccccc2O)no[n+]1[O-]` [compound 1253], the “% of Mortality LIT” value in data set [4] (compounds 1.0 mM, 10 min immersion, 24 h) was determined as 50 ± 8%. Also, the “acaricidal activity (in words)” value in the data set on R. microplus is reported as “acaricidal potential”. The IC50 in data set [2] (Mus musculus, J774.1, 48 h, read-out: IC50 (µM) Mammalian Cells) was more than 50 µM; in data set [5] (BME26 cells, 24 h, MTT, read-out: IC50), 12 ± 1 µM. Besides, in data set [5], the inhibition at 100 µM was determined as 95%.
Turning to `O=C(N/N=C/C=C/c1ccco1)c1ccccn1` [compound 1367], the values for the inhibition at 10 µM in data set [1] and in data set [3] (setting [7]) were 0% and 82%, respectively. For the same compound, the “acaricidal activity (in words)” value in the data set on R. microplus is given as “did not show reproducible acaricidal activity”. Further, the EC50 in data set [2] (setting [6]) is more than 50 µM. In addition, the IC50 in data set [3] is less than 10 µM.
Consider `COc1cc(/C=C/c2cc(/C=C/[c-]3cccc3)[nH]n2)ccc1O.[Fe+2].c1cc[cH-]c1` [Mar106, 2-Methoxy-4-((E)-2-(5-((E)-ferrocenylvinyl)-1H-pyrazol-3-yl)vinyl)phenol], for which the “% Inhibition of Enzymatic Activity of HsTIM at 10 µM” value in data set [1] is 0%. Further, the “acaricidal activity (in words)” value with R. microplus is reported as “did not show reproducible acaricidal activity”. In addition, the EC50 in data set [2] (cytotoxicity) was more than 25 µM. Further, in data set [3], the 50% inhibitory concentration (IC50) worked out at 25 ± 4 µM. The “% Inhibition of Enzymatic Activity of RmTIM” value in data set [3] (at 100 µM (**), 1 h incubation) is on record as 69 ** %.
On to `O=C1/C(=C2\Nc3ccccc3C2=O)Nc2ccccc21` [compound 879], for which the inhibition at 10 µM is 0% in data set [1] and 95% in data set [3] (setting [7]). Also, the “acaricidal activity (in words)” value with R. microplus is reported as “did not show reproducible acaricidal activity”. The EC50 in data set [2] (setting [6]) is more than 50 µM. The IC50 in data set [3] is less than 10 µM. For the same compound, the inhibition at 100 µM in data set [5] was 9%.
Consider `O=C(/C=C/c1ccsc1)/C=C/c1ccsc1` [compound 1387], for which the inhibition at 10 µM is 0% in data set [1] and 100% in data set [3] (setting [7]). Further, the “acaricidal activity (in words)” value in the data set with R. microplus was “did not show reproducible acaricidal activity”. The EC50 in data set [2] (setting [6]) is more than 50 µM. Also, the IC50 in data set [3] was less than 10 µM.

Usually EC50 stands for the concentration at which the effect is half-maximal. The term IC50 denotes the concentration at which inhibition is half-maximal. Usually inhibition stands for the share of the control response that was lost under treatment.
